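Assay format: 96-well plates, 48-hour exposure. The concentration for full growth arrest is given as TGI.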
Columns and labels:
Assay in all cases: NCI anticancer screen, dose series, 48 h
HCC-2998 colon = system: HCC-2998 colon
HT29 colon = system: HT29 colon
SN12C renal = system: SN12C renal
HOP-92 NSCLC = system: HOP-92 NSCLC
HCT-15 colon = system: HCT-15 colon
SF-268 CNS = system: SF-268 CNS
ACHN renal = system: ACHN renal
OVCAR-3 ovarian = system: OVCAR-3 ovarian
NCI-H460 lung = system: NCI-H460 lung
786-0 renal = system: 786-0 renal
M14 melanoma = system: M14 melanoma
RPMI-8226 leukemia = system: RPMI-8226 leukemia
UACC-62 melanoma = system: UACC-62 melanoma
LXFL 529 NSCLC = system: LXFL 529 NSCLC
COLO 205 colon = system: COLO 205 colon
DU-145 prostate = system: DU-145 prostate
MCF7 breast = system: MCF7 breast
BT-549 breast = system: BT-549 breast
NCI/ADR-RES ovarian = system: NCI/ADR-RES ovarian
PC-3 prostate = system: PC-3 prostate

Compound | TGI (HCC-2998 colon) | TGI (HT29 colon) | TGI (SN12C renal) | TGI (HOP-92 NSCLC) | TGI (HCT-15 colon) | TGI (SF-268 CNS) | TGI (ACHN renal) | TGI (OVCAR-3 ovarian) | TGI (NCI-H460 lung) | TGI (786-0 renal) | TGI (M14 melanoma) | TGI (RPMI-8226 leukemia) | TGI (UACC-62 melanoma) | TGI (LXFL 529 NSCLC) | TGI (COLO 205 colon) | TGI (DU-145 prostate) | TGI (MCF7 breast) | TGI (BT-549 breast) | TGI (NCI/ADR-RES ovarian) | TGI (PC-3 prostate)
O=C(NCc1ccccc1)c1cc2cc(O)c(O)cc2cn1 | > 100 µM | 70.4 µM | > 100 µM | > 100 µM | > 100 µM | 75.1 µM | > 100 µM | > 100 µM | 91.6 µM | > 100 µM | 43.1 µM | > 100 µM | 44.8 µM | > 100 µM | > 100 µM |  |  |  |  | 
CCCN1CN(C(C(=O)N[C@@H]2C(=O)N3C2SC(C)(C)C3C(=O)O)c2ccccc2)CSC1=S (some centres not stated) |  | > 100 µM | > 100 µM | > 100 µM | > 100 µM | > 100 µM | > 100 µM | > 100 µM | > 100 µM | > 100 µM | > 100 µM | > 100 µM | > 100 µM | > 100 µM | > 100 µM |  |  |  |  | 
CC(=O)Nc1ccc(C(=O)NN2C(=O)C(Cl)C2c2cc(Br)ccc2O)cc1 (configuration not stated) | > 100 µM | > 100 µM | > 100 µM | > 100 µM | > 100 µM | > 100 µM | > 100 µM | > 100 µM | > 48.5 µM | > 100 µM | 45.5 µM | > 100 µM | > 100 µM | > 100 µM | > 100 µM | > 100 µM | > 100 µM | > 100 µM | > 100 µM | > 100 µM
CCOC(=O)C(Cc1ccccc1)NC(=O)c1ccc(N=NN(C)C)cc1 (configuration not stated) | > 100 µM | > 100 µM | > 100 µM |  | > 100 µM | > 100 µM | > 100 µM | > 100 µM | > 100 µM | > 100 µM | > 100 µM | > 100 µM | > 100 µM | > 100 µM | > 100 µM |  |  |  |  | 
COc1ccc(CNC2=C(NC(C)=O)C(=O)c3ccccc3C2=O)cc1 | > 50 µM | > 50 µM | > 50 µM | 13 µM | > 50 µM | > 50 µM | 8.69 µM | 20.8 µM | > 50 µM | > 50 µM | > 50 µM |  | 33.5 µM | 14.9 µM | 16.4 µM |  |  |  |  | 
O=C(NC1CCC(=O)N1C(=O)OCc1ccccc1)OCc1ccccc1 (configuration not stated) | > 100 µM | > 100 µM | > 100 µM | > 100 µM | > 100 µM | > 100 µM | > 100 µM | > 100 µM | > 100 µM | > 100 µM | > 100 µM | > 100 µM | > 100 µM |  | > 100 µM | > 100 µM | > 100 µM | > 100 µM | > 100 µM | > 100 µM
Cc1ccc2c(c1)C(=O)C(Cc1ccccc1C(=O)O)C2 (configuration not stated) | > 100 µM | > 100 µM | > 100 µM | > 100 µM | > 100 µM | > 100 µM | > 100 µM | > 100 µM | > 100 µM | > 100 µM | > 100 µM | > 100 µM | > 100 µM |  | > 100 µM | > 100 µM | > 100 µM | > 100 µM | > 100 µM | > 100 µM
O=c1c2cc([N+](=O)[O-])ccc2n(Cc2ccccc2)n1Cc1ccccc1 | > 31.6 µM | > 31.6 µM | > 31.6 µM | > 31.6 µM | > 31.6 µM | > 31.6 µM | > 31.6 µM | > 31.6 µM | 26.9 µM | > 31.6 µM | 20.7 µM | 18.8 µM | 21.4 µM |  | > 31.6 µM | > 31.6 µM | 28.6 µM | 27 µM | 20.3 µM | 31 µM
O=C(O)C(Cc1c[nH]c2ccccc12)N=Cc1nc(-c2ccccc2)oc1O (configuration not stated) | > 100 µM | > 100 µM | > 100 µM | > 100 µM | > 100 µM | > 100 µM | > 100 µM | > 100 µM | > 100 µM | > 100 µM | > 100 µM | > 100 µM | > 100 µM | > 100 µM | > 100 µM |  |  |  |  | 
C=CCNC(=S)N1c2ccccc2NC(=O)CC1C (configuration not stated) |  | > 100 µM | > 100 µM |  | > 100 µM | > 100 µM | > 100 µM | > 100 µM | > 100 µM | > 100 µM | > 100 µM | > 100 µM | > 100 µM | > 100 µM | > 100 µM |  |  |  |  | 

Source: PubChem BioAssay (NCI)
